# According to publication PMC5218480 (PLoS ONE, 2017):
# Tested on: MV-4-11 cells
# Experiment: Gene expression microarray analysis (Affymetrix PrimeView) and GSEA
# Assay type: cell-based, human
# Set-up: RFU PODN (11730768_x_at) / Fold change /veh PODN (11730768_x_at) / RFU LINC00158 (11744669_a_at) / Fold change /veh LINC00158 (11744669_a_at) / RFU DUSP10 (11751237_a_at) / Fold change /veh DUSP10 (11751237_a_at) / RFU ID3 (11757404_x_at) / Fold change /veh ID3 (11757404_x_at) / RFU PLEKHG5 (11737974_s_at) / Fold change /veh PLEKHG5 (11737974_s_at) / RFU LRRC4B (11730491_at) / Fold change /veh LRRC4B (11730491_at) / RFU GIMAP4 (11747438_a_at) / Fold change /veh GIMAP4 (11747438_a_at) / RFU KRT8 (11758183_x_at) / Fold change /veh KRT8 (11758183_x_at) / RFU CNN1 (11734310_a_at) / Fold change /veh CNN1 (11734310_a_at) / RFU VPS37D (11726825_at) / Fold change /veh VPS37D (11726825_at) / RFU C10orf10 (11716522_x_at) / Fold change /veh C10orf10 (11716522_x_at) / RFU KIR2DL2 /// KIR2DL4 /// KIR2DL5A /// KIR2DL5B /// KIR2DS1 /// KIR2DS2 /// KIR2DS3 /// KIR2DS4 /// KIR3DL3 /// KIR3DL3 /// KIR3DS1 (11738374_at) / Fold change /veh KIR2DL2 /// KIR2DL4 /// KIR2DL5A /// KIR2DL5B /// KIR2DS1 /// KIR2DS2 /// KIR2DS3 /// KIR2DS4 /// KIR3DL3 /// KIR3DL3 /// KIR3DS1 (11738374_at) / RFU C1QL1 (11718748_at) / Fold change /veh C1QL1 (11718748_at) / RFU TMPRSS4 (11747572_a_at) / Fold change /veh TMPRSS4 (11747572_a_at) / RFU HAMP (11756126_x_at) / Fold change /veh HAMP (11756126_x_at) / RFU RNFT2 (11725882_a_at) / Fold change /veh RNFT2 (11725882_a_at) / RFU NR4A2 (11747474_a_at) / Fold change /veh NR4A2 (11747474_a_at) / RFU ABCC12 (11746883_a_at) / Fold change /veh ABCC12 (11746883_a_at) / RFU TMEM136 (11760407_x_at) / Fold change /veh TMEM136 (11760407_x_at) / RFU CLDN22 /// WWC2 (11732394_at) / Fold change /veh CLDN22 /// WWC2 (11732394_at) / RFU HLA-DPB1 (11760878_x_at) / Fold change /veh HLA-DPB1 (11760878_x_at) / RFU SPINT1 (11716480_a_at) / Fold change /veh SPINT1 (11716480_a_at) / RFU GAP43 (11754022_s_at) / Fold change /veh GAP43 (11754022_s_at) / RFU A4GNT (11735810_at) / Fold change /veh A4GNT (11735810_at) / RFU PRB3 (11715151_x_at) / Fold change /veh PRB3 (11715151_x_at) / RFU TUBB4B (11761932_at) / Fold change /veh TUBB4B (11761932_at) / RFU CAPN14 (11732068_a_at) / Fold change /veh CAPN14 (11732068_a_at) / RFU TMCC2 (11721928_a_at) / Fold change /veh TMCC2 (11721928_a_at) / RFU IRGQ (11745062_a_at) / Fold change /veh IRGQ (11745062_a_at) / RFU FAM174B (11720279_a_at) / Fold change /veh FAM174B (11720279_a_at) / RFU TMPRSS4 (11748680_a_at) / Fold change /veh TMPRSS4 (11748680_a_at) / RFU FAM212B (11763350_a_at) / Fold change /veh FAM212B (11763350_a_at) / RFU PLEKHG5 (11743358_a_at) / Fold change /veh PLEKHG5 (11743358_a_at) / RFU ZSCAN30 (11745921_a_at) / Fold change /veh ZSCAN30 (11745921_a_at) / RFU CMKLR1 (11741424_a_at) / Fold change /veh CMKLR1 (11741424_a_at) / RFU LOC101060620 /// MAPK8IP1 (11723275_at) / Fold change /veh LOC101060620 /// MAPK8IP1 (11723275_at) / RFU SPTSSB (11747773_x_at) / Fold change /veh SPTSSB (11747773_x_at) / RFU PRSS12 (11739890_at) / Fold change /veh PRSS12 (11739890_at) / RFU BIN1 (11741810_x_at) / Fold change /veh BIN1 (11741810_x_at) / RFU WNT11 (11732464_a_at) / Fold change /veh WNT11 (11732464_a_at) / RFU C10orf10 (11716521_a_at) / Fold change /veh C10orf10 (11716521_a_at) / RFU C5orf56 (11738089_at) / Fold change /veh C5orf56 (11738089_at) / RFU CYB561 (11721691_x_at) / Fold change /veh CYB561 (11721691_x_at) / RFU ANKRD19P (11752326_a_at) / Fold change /veh ANKRD19P (11752326_a_at) / RFU OR2T12 /// OR2T33 /// OR2T8 (11738714_s_at) / Fold change /veh OR2T12 /// OR2T33 /// OR2T8 (11738714_s_at) / RFU VCAN (11748164_a_at) / Fold change /veh VCAN (11748164_a_at) / RFU JSRP1 (11732532_at) / Fold change /veh JSRP1 (11732532_at) / RFU KRTAP10-11 (11738290_x_at) / Fold change /veh KRTAP10-11 (11738290_x_at) / RFU MYO3A (11730013_a_at) / Fold change /veh MYO3A (11730013_a_at) / RFU EBF3 (11725865_a_at) / Fold change /veh EBF3 (11725865_a_at) / RFU CAMK2N1 (11719241_x_at) / Fold change /veh CAMK2N1 (11719241_x_at) / RFU C5orf56 (11738088_a_at) / Fold change /veh C5orf56 (11738088_a_at) / RFU OLFML3 (11715873_a_at) / Fold change /veh OLFML3 (11715873_a_at) / RFU LOC100653217 /// NTM (11731650_a_at) / Fold change /veh LOC100653217 /// NTM (11731650_a_at) / RFU MAPK11 (11762145_a_at) / Fold change /veh MAPK11 (11762145_a_at) / RFU FIZ1 (11724087_x_at) / Fold change /veh FIZ1 (11724087_x_at) / RFU OASL (11726364_x_at) / Fold change /veh OASL (11726364_x_at) / RFU SOX15 (11748057_x_at) / Fold change /veh SOX15 (11748057_x_at) / RFU CD79A (11719716_a_at) / Fold change /veh CD79A (11719716_a_at) / RFU HIST1H1D (11736915_at) / Fold change /veh HIST1H1D (11736915_at) / RFU CASKIN2 (11723855_a_at) / Fold change /veh CASKIN2 (11723855_a_at) / RFU LOC730098 (11760151_x_at) / Fold change /veh LOC730098 (11760151_x_at) / RFU OR4N2 (11742367_at) / Fold change /veh OR4N2 (11742367_at) / RFU PRRT2 (11749266_a_at) / Fold change /veh PRRT2 (11749266_a_at) / RFU SNX32 (11753110_a_at) / Fold change /veh SNX32 (11753110_a_at) / RFU CDHR5 (11726645_a_at) / Fold change /veh CDHR5 (11726645_a_at) / RFU RCAN1 (11760418_a_at) / Fold change /veh RCAN1 (11760418_a_at) / RFU FAM167A (11723789_a_at) / Fold change /veh FAM167A (11723789_a_at) / RFU FAM26E (11764081_at) / Fold change /veh FAM26E (11764081_at) / RFU ISYNA1 (11749810_s_at) / Fold change /veh ISYNA1 (11749810_s_at) / RFU ACY1 (11761880_at) / Fold change /veh ACY1 (11761880_at) / RFU 11764098_at / Fold change /veh 11764098_at / RFU SAMD14 (11745864_x_at) / Fold change /veh SAMD14 (11745864_x_at) / RFU NPB (11741838_a_at) / Fold change /veh NPB (11741838_a_at) / RFU TMPRSS6 (11731388_a_at) / Fold change /veh TMPRSS6 (11731388_a_at) / RFU KRTAP10-2 (11738614_at) / Fold change /veh KRTAP10-2 (11738614_at) / RFU ARHGAP8 /// PRR5-ARHGAP8 (11727945_x_at) / Fold change /veh ARHGAP8 /// PRR5-ARHGAP8 (11727945_x_at) / RFU KRTAP5-7 /// NADSYN1 (11734609_at) / Fold change /veh KRTAP5-7 /// NADSYN1 (11734609_at) / RFU RASL12 (11751679_a_at) / Fold change /veh RASL12 (11751679_a_at) / RFU CDKN2B (11736163_a_at) / Fold change /veh CDKN2B (11736163_a_at) / RFU PRF1 (11729649_at) / Fold change /veh PRF1 (11729649_at) / RFU, ZNF638 /// ZNF638-IT1 / Fold change vs veh, ZNF638 /// ZNF638-IT1 / RFU, PANK3 / Fold change vs veh, PANK3 / RFU, SH3YL1 / Fold change vs veh, SH3YL1 / RFU, ZEB2 / Fold change vs veh, ZEB2 / RFU, NRIP1 / Fold change vs veh, NRIP1 / RFU, PTTG1IP / Fold change vs veh, PTTG1IP / RFU, CAPN2 / Fold change vs veh, CAPN2 / RFU, MED14 / Fold change vs veh, MED14 / RFU, SNORA58 / Fold change vs veh, SNORA58 / RFU, C1orf63 / Fold change vs veh, C1orf63 / RFU, LRRFIP1 / Fold change vs veh, LRRFIP1 / RFU, NDUFAF7 / Fold change vs veh, NDUFAF7 / RFU, SLC12A2 / Fold change vs veh, SLC12A2 / RFU, IBTK / Fold change vs veh, IBTK / RFU, ESF1 / Fold change vs veh, ESF1 / Fold change vs veh, TMEM50B / RFU, TAOK1 / Fold change vs veh, TAOK1 / RFU, ACBD3 / Fold change vs veh, ACBD3 / RFU, TMA16 / Fold change vs veh, TMA16 / RFU, RWDD3 / Fold change vs veh, RWDD3 / RFU, BCAT1 / Fold change vs veh, BCAT1 / RFU, EDEM3 / Fold change vs veh, EDEM3 / RFU, TMEM33 / Fold change vs veh, TMEM33 / RFU, WDR75 / Fold change vs veh, WDR75 / RFU, AHCTF1 / Fold change vs veh, AHCTF1 / RFU, TFRC / Fold change vs veh, TFRC / RFU, ZDHHC17 / Fold change vs veh, ZDHHC17 / RFU, NOM1 / Fold change vs veh, NOM1 / RFU, ARL8B / Fold change vs veh, ARL8B / RFU, ZBTB11 / Fold change vs veh, ZBTB11 / RFU, TAMM41 / Fold change vs veh, TAMM41 / RFU, KIAA1704 /// LOC100996395 / Fold change vs veh, KIAA1704 /// LOC100996395 / RFU, ING1 / Fold change vs veh, ING1 / RFU, TRMT61B / Fold change vs veh, TRMT61B / RFU, FUBP3 / Fold change vs veh, FUBP3 / RFU, TP53 / Fold change vs veh, TP53 / RFU, TNKS2 / Fold change vs veh, TNKS2 / RFU, ZFP14 / Fold change vs veh, ZFP14 / RFU, ACTR2 / Fold change vs veh, ACTR2 / RFU, PPP3R1 / Fold change vs veh, PPP3R1 / RFU, PIK3R1 / Fold change vs veh, PIK3R1 / RFU, HNRNPA1 / Fold change vs veh, HNRNPA1 / RFU, RNF170 / Fold change vs veh, RNF170 / RFU, ZNF28 / Fold change vs veh, ZNF28 / RFU, RNGTT / Fold change vs veh, RNGTT / RFU, OGT / Fold change vs veh, OGT / RFU, BRD1 / Fold change vs veh, BRD1 / RFU, MARS / Fold change vs veh, MARS / RFU, ZNF655 / Fold change vs veh, ZNF655 / RFU, FAHD1 / Fold change vs veh, FAHD1 / RFU, BDP1 / Fold change vs veh, BDP1 / RFU, LRRCC1 / Fold change vs veh, LRRCC1 / RFU, ARID1A / Fold change vs veh, ARID1A / RFU, ZNF146 / Fold change vs veh, ZNF146 / RFU, ZNF330 / Fold change vs veh, ZNF330 / RFU, GPN3 / Fold change vs veh, GPN3 / RFU, C9orf123 / Fold change vs veh, C9orf123 / RFU, N4BP2L2 / Fold change vs veh, N4BP2L2 / RFU, ARFIP1 / Fold change vs veh, ARFIP1 / RFU, FAM179B / Fold change vs veh, FAM179B / RFU, BCL10 / Fold change vs veh, BCL10 / RFU, UHRF1BP1L / Fold change vs veh, UHRF1BP1L / RFU, BET1 / Fold change vs veh, BET1 / RFU, CNOT2 / Fold change vs veh, CNOT2 / RFU, ZNF268 / Fold change vs veh, ZNF268 / Fold change vs veh, ZNF507 / RFU, DGCR2 / Fold change vs veh, DGCR2 / RFU, WDSUB1 / Fold change vs veh, WDSUB1 / Fold change vs veh, HSP90B1 /// MIR3652 / RFU, ADSS / Fold change vs veh, ADSS / RFU, GK / Fold change vs veh, GK / RFU, ZNF148 / Fold change vs veh, ZNF148 / RFU, TAF9 / Fold change vs veh, TAF9 / RFU, SLC1A5 / Fold change vs veh, SLC1A5 / RFU, SLMO2 / Fold change vs veh, SLMO2 / RFU, ABCC4 / Fold change vs veh, ABCC4 / RFU, LOC101060439 /// RAP1B / Fold change vs veh, LOC101060439 /// RAP1B / RFU, RFX7 / Fold change vs veh, RFX7 / RFU, GTPBP10 / Fold change vs veh, GTPBP10 / RFU, CNEP1R1 / Fold change vs veh, CNEP1R1 / RFU, BIVM-ERCC5 /// ERCC5 / Fold change vs veh, BIVM-ERCC5 /// ERCC5 / RFU, ILF3 / Fold change vs veh, ILF3 / RFU 11762660_at / Fold change /veh 11762660_at / RFU VCAN (11757783_s_at) / Fold change /veh VCAN (11757783_s_at) / RFU DDX43 (11728927_at) / Fold change /veh DDX43 (11728927_at) / RFU KRT8 (11758188_x_at) / Fold change /veh KRT8 (11758188_x_at) / RFU NKD1 (11759106_at) / Fold change /veh NKD1 (11759106_at) / RFU SRD5A1 (11742802_a_at) / Fold change /veh SRD5A1 (11742802_a_at) / RFU TPSAB1 /// TPSB2 (11721975_s_at) / Fold change /veh TPSAB1 /// TPSB2 (11721975_s_at) / RFU GSTM3 (11746129_a_at) / Fold change /veh GSTM3 (11746129_a_at) / RFU IL23R (11737362_x_at) / Fold change /veh IL23R (11737362_x_at) / RFU TMEM51 (11727254_a_at) / Fold change /veh TMEM51 (11727254_a_at) / RFU PIWIL2 (11732686_x_at) / Fold change /veh PIWIL2 (11732686_x_at) / RFU ORM1 (11744905_x_at) / Fold change /veh ORM1 (11744905_x_at) / RFU CCDC152 (11743942_at) / Fold change /veh CCDC152 (11743942_at) / RFU ECM1 (11717891_a_at) / Fold change /veh ECM1 (11717891_a_at) / RFU IL23R (11748794_a_at) / Fold change /veh IL23R (11748794_a_at) / RFU TNFAIP8L3 (11732012_x_at) / Fold change /veh TNFAIP8L3 (11732012_x_at) / RFU MBOAT4 (11741988_at) / Fold change /veh MBOAT4 (11741988_at) / RFU 11764193_at / Fold change /veh 11764193_at / RFU TMEM53 (11763286_at) / Fold change /veh TMEM53 (11763286_at) / RFU MAGEB2 (11727129_at) / Fold change /veh MAGEB2 (11727129_at) / RFU TMEM200A (11744735_a_at) / Fold change /veh TMEM200A (11744735_a_at) / RFU CCDC152 (11751479_a_at) / Fold change /veh CCDC152 (11751479_a_at) / RFU FAM211A (11726209_a_at) / Fold change /veh FAM211A (11726209_a_at) / RFU RGS16 (11746705_a_at) / Fold change /veh RGS16 (11746705_a_at) / RFU VCAN (11755009_s_at) / Fold change /veh VCAN (11755009_s_at) / RFU RHOB (11743442_s_at) / Fold change /veh RHOB (11743442_s_at) / RFU RGS16 (11720943_a_at) / Fold change /veh RGS16 (11720943_a_at) / RFU RGS16 (11720944_at) / Fold change /veh RGS16 (11720944_at) / RFU, VPS4B / Fold change vs veh, VPS4B / RFU, CREB1 / Fold change vs veh, CREB1 / RFU, DNAJC13 / Fold change vs veh, DNAJC13 / RFU, GNAQ / Fold change vs veh, GNAQ / RFU, CDK5R1 / Fold change vs veh, CDK5R1 / RFU, ZRANB3 / Fold change vs veh, ZRANB3 / RFU, CUL4A / Fold change vs veh, CUL4A / RFU, CCNY / Fold change vs veh, CCNY / RFU, UFL1 / Fold change vs veh, UFL1 / RFU, COG3 / Fold change vs veh, COG3 / RFU, DIAPH2 / Fold change vs veh, DIAPH2 / RFU, SKA2 / Fold change vs veh, SKA2 / RFU, AFF3 / Fold change vs veh, AFF3 / RFU, LMF1 / Fold change vs veh, LMF1 / RFU, IPO11 / Fold change vs veh, IPO11 / RFU, DFFB / Fold change vs veh, DFFB / RFU, FOXP1 / Fold change vs veh, FOXP1 / RFU, CARD8 / Fold change vs veh, CARD8 / RFU, STRN3 / Fold change vs veh, STRN3 / RFU, ADK / Fold change vs veh, ADK / RFU, RASSF2 / Fold change vs veh, RASSF2 / RFU, WIPF1 / Fold change vs veh, WIPF1 / RFU, LARP1B / Fold change vs veh, LARP1B / RFU, RASA1 / Fold change vs veh, RASA1 / RFU, RB1 / Fold change vs veh, RB1 / RFU, PPFIA1 / Fold change vs veh, PPFIA1 / RFU, MAT2A / Fold change vs veh, MAT2A / RFU, CCT5 / Fold change vs veh, CCT5 / RFU, WDR92 / Fold change vs veh, WDR92 / RFU, CUX1 / Fold change vs veh, CUX1 / RFU, TTC7A / Fold change vs veh, TTC7A / RFU, TMEM135 / Fold change vs veh, TMEM135 / RFU, DEPTOR / Fold change vs veh, DEPTOR / RFU, CPM / Fold change vs veh, CPM / RFU, DNAJB6 / Fold change vs veh, DNAJB6 / RFU, CACNA2D3 / Fold change vs veh, CACNA2D3 / RFU, DTX4 / Fold change vs veh, DTX4 / RFU, TFCP2 / Fold change vs veh, TFCP2 / RFU, GMCL1 /// GMCL1P1 / Fold change vs veh, GMCL1 /// GMCL1P1 / RFU, AEBP2 / Fold change vs veh, AEBP2 / RFU, SNHG1 /// SNORD22 /// SNORD25 /// SNORD26 /// SNORD27 /// SNORD28 /// SNORD29 /// SNORD31 / Fold change vs veh, SNHG1 /// SNORD22 /// SNORD25 /// SNORD26 /// SNORD27 /// SNORD28 /// SNORD29 /// SNORD31 / Fold change (Aza/veh), C12orf56 (ProbeSet 11735607_a_at) / Fold change (ACY-1035/veh), C12orf56 (ProbeSet 11735607_a_at) / Fold change (Aza/veh), FGFR1OP (ProbeSet 11751329_s_at) / Fold change (ACY-1035/veh), FGFR1OP (ProbeSet 11751329_s_at) / Fold change (Aza/veh), VPS36 (ProbeSet 11739960_a_at) / Fold change (ACY-1035/veh), VPS36 (ProbeSet 11739960_a_at) / RFU SYPL1 (11715823_x_at) / Fold change /veh SYPL1 (11715823_x_at) / RFU IGFBP7 (11715501_s_at) / Fold change /veh IGFBP7 (11715501_s_at) / RFU REEP3 (11722064_at) / Fold change /veh REEP3 (11722064_at) / RFU IGLL1 (11728026_x_at) / Fold change /veh IGLL1 (11728026_x_at): dose or concentration left out as unconfirmed
# Conditions: ProbeSet 11744854_x_at; LIST B
smiles,measurement,value
Nc1ncn([C@@H]2O[C@H](CO)[C@@H](O)[C@H]2O)c(=O)n1 [azacitidine],"RFU, ZNF28",60.82 RFU
